Laboratory results from patent publication EP0006987A1, “2,4-Diamino-5-benzylpyrimidines, especially for the treatment of microbial infections, pharmaceutical compositions containing these compounds and processes for preparing these compounds” (THE WELLCOME FOUNDATION LIMITED, priority 1978, dated 1980).
Counter-ions that a name gives are not always drawn. Like-named read-outs stand apart in the source and are kept apart here. Marks after values point to notes of the source that are not given here.

What was measured:
Neisseria gonorrhoeae = assay: Antigonococcal activity, MIC by agar dilution, relative to trimethoprim; format: cell-based; conditions: expressed as activity versus TMP activity, 17 strains; for Antigonococcal Activity v.N.gonorrhaeae W.S.T.A. (Repeat Examination) / Antigonococcal Activity v.N.gonorrhaeae W.S.T.A.: Wellcotest Sensitivity Test Agar; for Antigonococcal Activity v.N.gonorrhaeae W.S.T.A. (Repeat Examination): standardised inocula, 48 hours incubation; for Antigonococcal Activity v.N.gonorrhaeae W.S.T.A.: Screening Examination, 24 hours incubation; for Antigonococcal Activity v.N.gonorrhaeae G.C.A.: Difco G.C. Agar
Description: (§1) The antigonococcal activity of 2,4-diamino-(3,5-diethyl-4-hydroxybenzyl)pyrimidine (compound 1), 2,4-diamino-(4-hydroxy-3,5-di-n-propylbenzyl)pyrimidine (compound 2), 2,4-diamino-(3-ethyl-4-hydroxy-5-n-propylbenzyl)pyrimidine (compound 3),24-diamino-(4-hydroxy-3,5-di-i-propylbenzyl)pyrimidine (compound 4) and 2,4-·diamino-·(3,5-di--t-butyl-4-hydroxybenzyl) pyrimidine (compound 5) and the antimeningococcal activity of compounds 2,3 and 4 were determined […] by the following methods. The activities were measured against 17 strains of Neisseria gonorrhoeae and 5 strains of Neisseria meningitidis in Wellcotest Sensitivity Test Agar supplemented with 5$ heated horse blood and 5% unheated lysed horse blood, In practice, 5% blood was added to 500ml quantities of the medium at 56°C and, after being placed in a 80°C water bath for 15 minutes and then cooled to 56°C, the lysed blood and the test compounds were added. The medium was then immediately poured into plates. The test compounds were dissolved as the isothionates.
(§2) In the Screening Examination, which consisted of 6 separate tests, the minimum inhibitory concentrations (MIC's) were determined in one-third interval dilutions and then reexamined in one-half interval dilution.
(§3) The inoculum in the Screening Examination was from an 18-hour Mueller-Hinton heated-blood broth culture, and applied with a lmm loop which was streaked along lcm.. Because the amount of growth produced by the strains varied, the inocula was not constant in these tests, in the Repeat Examination, the inocula were standardised to give "just confluent'' growth. The MIC's were read as that concentration which produced 90% or more inhibition of growth as compared macroscopically with that of the control growth. The incubation period for the Screening Examination was 24 hours and for the Repeat Examination 48 hours.
(§4) As standards, Escherichia coli (CN 314 ) and trimethoprim (TMP) were included in each test.
(§5) Using the above method the activities of compound 5 was measured against the same 17 strains of Neisseria gonorrhoeae and 5 strains of Neisseria meningitidis in Difco G.C. Agar.

Neisseria meningitidis = assay: Antimeningococcal activity, MIC by agar dilution, relative to trimethoprim; format: cell-based; conditions: expressed as activity versus TMP activity; 5 strains
Description: as §1, §2, §3, §4, §5

[1] = system: Escherichia coli (CN 314 ); assay: Activity against standard organism E. coli, MIC by agar dilution, relative to trimethoprim; format: cell-based; conditions: expressed as activity versus TMP activity
Description: The medium was then immediately poured into plates. The test compounds were dissolved as the isothionates. […] Because the amount of growth produced by the strains varied, the inocula was not constant in these tests, in the Repeat Examination, the inocula were standardised to give "just confluent'' growth. The MIC's were read as that concentration which produced 90% or more inhibition of growth as compared macroscopically with that of the control growth. The incubation period for the Screening Examination was 24 hours and for the Repeat Examination 48 hours. As standards, Escherichia coli (CN 314 ) and trimethoprim (TMP) were included in each test.

[2] = Blood, urine and tissue concentrations in mice after oral administration (microbiological assay with Bacillus pumilus); format: in vivo; conditions: 2mg/mouse P.O.; for Urine Direct (percentage in brackets): appears to be direct urine concentration as percent of that after Glusalase; for concentration at 1 h / concentration at 2 h / concentration at 4 h: po; for concentration at 1 h: 1 hour after dosing, read-out: Conc. in blood at 1HR; for concentration at 2 h: 2 hours after dosing, read-out: Conc. in blood at 2HR
Description: Also shown in Table 1 is the concentration of each of the compounds in the blood urine and tissues of mice after oral administration. These concent rations were determined as described hereafter. The compounds, suspended in 0.1% methylcellulose, were administered by stomach tube to groups of 3 mice, the dose was 2.0mg per 20g mouse and blood was collected from the orbital sinus at 1, 2 and 4 hours after the dosing. Urine was collected directly from each animal at the 4th hour, after which the animals were killed. Liver, lung, brain and muscle was taken from each animal and homogenised in an equal volume (w/v) of water in a Polytron Homogenizer. The suspensions were taken to be 1:2 extracts of the tissues.
The concentrations of the drugs were determined microbiologically, using Bacillus pumilus, those in the urine determined both before and after 18 hours incubation with Glusalase (gluecuronidase and sulfatase).

[3] = Acute oral toxicity in rats; conditions: rat, in vivo
[4] = Acute oral toxicity in mice; conditions: mouse, in vivo
[5] = blood, 4 hours after dosing, read-out: Conc. in blood at 4HR
[6] = brain, 4 hours, tissue homogenate, read-out: Concentration at 4HRS in: Brain
[7] = liver, 4 hours, tissue homogenate, read-out: Concentration at 4HRS in: Liver
[8] = lung, 4 hours, tissue homogenate, read-out: Concentration at 4HRS in: Lung
[9] = muscle, 4 hours, tissue homogenate, read-out: Concentration at 4HRS in: Muscle
[10] = 4 hours, urine after 18 hours incubation with Glusalase (glucuronidase and sulfatase), read-out: Concentration at 4HRS in: Urine After glacolase
[11] = 4 hours, urine before incubation with Glusalase, read-out: Concentration at 4HRS in: Urine Direct

Row | SMILES | Antigonococcal Activity v.N.gonorrhaeae W.S.T.A. (Repeat Examination) (Neisseria gonorrhoeae) | Antigonococcal Activity v.N.gonorrhaeae W.S.T.A. (Neisseria gonorrhoeae) | Antigonococcal Activity v.N.meningitidis (Neisseria meningitidis) | Antigonococcal Activity v.E.coli (CN314) [1] | Urine Direct (percentage in brackets) ([2]; 4 hours) | concentration at 1 h ([2]; blood) | concentration at 2 h ([2]; blood) | concentration at 4 h [2, 5] | concentration at 4 h [2, 6] | concentration at 4 h [2, 7] | concentration at 4 h [2, 8] | concentration at 4 h [2, 9] | concentration at 4 h [2, 10] | concentration at 4 h [2, 11] | Antigonococcal Activity v.N.gonorrhaeae G.C.A. (Neisseria gonorrhoeae) | LD50 [3] | LD50 ([4]; female mice, read-out: LD50 (mice) female) | LD50 ([4]; male mice, read-out: LD50 (mice) male)
1 | CCCc1cc(Cc2cnc(N)nc2N)cc(CC)c1O [COMPOUND 3, 2,4-diamino-(3-ethyl-4-hydroxy-5-n-propylbenzyl)pyrimidine] | 18^** | 21 | 7 | >0.1 | 2.2% | 0.88 µg/mL | 0.9 µg/mL | 0.8 µg/mL | 0.44 µg/mL | 5 µg/mL | 3.6 µg/mL | 0.21 µg/mL | 1800 µg/mL | 39 µg/mL | – | – | – | –
2 | CC(C)(C)c1cc(Cc2cnc(N)nc2N)cc(C(C)(C)C)c1O [COMPOUND 5, 2,4-·diamino-·(3,5-di--t-butyl-4-hydroxybenzyl) pyrimidine] | – | – | – | – | 42% | 4.25 µg/mL | 4 µg/mL | 3 µg/mL | 4.4 µg/mL | 6 µg/mL | 11.2 µg/mL | < 0.26 µg/mL | 240 µg/mL | 100 µg/mL | 7 | – | – | –
3 | CC(C)c1cc(Cc2cnc(N)nc2N)cc(C(C)C)c1O [COMPOUND 4, 24-diamino-(4-hydroxy-3,5-di-i-propylbenzyl)pyrimidine] | 17^** | 18 | 7 | 0.03 | 50% | 1.38 µg/mL | 1.08 µg/mL | 0.65 µg/mL | 0.46 µg/mL | 8.3 µg/mL | 2.6 µg/mL | < 0.03 µg/mL | 190 µg/mL | 95 µg/mL | 13 | – | – | –
4 | CCCc1cc(Cc2cnc(N)nc2N)cc(CCC)c1O [COMPOUND 2, 2,4-diamino-(4-hydroxy-3,5-di-n-propylbenzyl)pyrimidine] | 17^** | 21 | 11 | 0.03 | 2.5% | 1.36 µg/mL | 0.5 µg/mL | 0.44 µg/mL | 0.5 µg/mL | 3.75 µg/mL | 1.8 µg/mL | < 0.03 µg/mL | 650 µg/mL | 16 µg/mL | – | – | – | –
5 | CC(C)c1cc(Cc2cnc(N)nc2N)cc(C(C)C)c1O [2,4-diamino-5-(3,5-diisopropyl-4-hvdroxyberzyl) pyrimidine lactate salt] | – | – | – | – | – | – | – | – | – | – | – | – | – | – | – | > 100 mg/kg | 2890 mg/kg | 2830 mg/kg
6 | COc1cc(Cc2cnc(N)nc2N)cc(OC)c1OC [TMP, 2,4-diamino-5-(3,4,5-trimethoxybenzyl)pyrimidine, reference compound] | 1 | 1 | 1 | 1 | 50% | 2.15 µg/mL | 0.28 µg/mL | < 0.02 µg/mL | < 0.04 µg/mL | 1.08 µg/mL | – | < 0.04 µg/mL | 400 µg/mL | 200 µg/mL | 1 | – | – | –
7 | CCc1cc(Cc2cnc(N)nc2N)cc(CC)c1O [COMPOUND 1, 2,4-diamino-(3,5-diethyl-4-hydroxybenzyl)pyrimidine] | – | 7 | – | – | 7% | 1.11 µg/mL | 0.41 µg/mL | 0.4 µg/mL | 0.34 µg/mL | 1.94 µg/mL | 1.75 µg/mL | < 0.03 µg/mL | 790 µg/mL | 56 µg/mL | – | – | – | –
